PMC9810272 (Nature, 2022)
Where two headings read alike, the source gives them in different places.

Tests used:
yeast Tango2p [1] = target: T1, yeast Tango2p (Saccharomyces cerevisiae, UniProt P53275); assay: UV-vis difference spectra titration; assay type: binding
T1 sequence (P53275 1-312): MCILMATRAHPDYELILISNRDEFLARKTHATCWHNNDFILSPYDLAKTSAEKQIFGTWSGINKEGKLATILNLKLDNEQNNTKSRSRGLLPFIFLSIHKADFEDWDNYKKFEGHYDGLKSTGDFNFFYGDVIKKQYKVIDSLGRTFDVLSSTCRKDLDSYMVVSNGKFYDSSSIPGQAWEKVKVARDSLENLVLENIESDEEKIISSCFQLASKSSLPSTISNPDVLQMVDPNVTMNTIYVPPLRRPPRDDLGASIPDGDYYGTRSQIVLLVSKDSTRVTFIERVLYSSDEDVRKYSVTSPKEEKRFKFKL

yeast Tango2p [2] = target: T1, yeast Tango2p; assay: UV-vis difference spectra titration; assay type: binding; remark: listed apart in the source

Kd (yeast Tango2p [1]) [µM] | Kd (yeast Tango2p [2]) [µM] | Compound
38.7 | – | C=CC1=C(C)C2=Cc3c(C=C)c(C)c4[n]3[Fe][n]3c(c(C)c(CCC(=O)O)c3=CC3=NC(=C4)C(C)=C3CCC(=O)O)=CC1=N2 [ferric haem]
– | 15.4 | C=CC1=C(C)C2=Cc3c(C=C)c(C)c4[n]3[Fe][n]3c(c(C)c(CCC(=O)O)c3=CC3=NC(=C4)C(C)=C3CCC(=O)O)=CC1=N2 [ferrous haem]
